“And” between values parts separate entries of the source, which are not always exact repeats. Equal values may be shown once. “Also recorded” adds a separate entry of the source.
Tests used:
[1] = system: tremorogenic and convulsive actions of nicotine; experiment: Nicotine-induced tremor and seizure model; assay type: in vivo, mice; details: for responders at 1 mg/kg: po; for survival rate of the animals increased to: at low doses (0.1–5 mg/kg); for activity against tremorogenic and convulsive actions of nicotine versus reference drugs (in words): doses of 0.1–5 mg/kg; for survival rate: reference drugs
Description: (§1) The anticonvulsant effects of the examined substances were studied in male white mice weighing 18–22 g, divided into the following groups: control (including the strychnine and nicotine groups), carbamazepine group, Convulex group, and experimental groups (one for each tested substance). Simple randomization (“heads or tails” coin toss) was used to assign animals to groups. Each group contained 10 animals. Healthy animals were included in the experiments after a 14-day quarantine period. No animals were excluded from the study. Convulsant agents were administered subcutaneously at doses of 10.0 mg/kg for nicotine (Sigma–Aldrich, Saint Louis, MO, USA) and 1.5 mg/kg for strychnine (Sigma–Aldrich, Saint Louis, MO, USA), 60 min after the oral administration of the test substances at doses ranging from 0.1 to 10 mg/kg. The onset time, duration of tremors and seizures, and survival rate of the animals were recorded. Carbamazepine (Darnitsa, Kiev, Ukraine) at doses of 5.0–10.0 mg/kg and Convulex (valproate) (Gerot Pharmazeutika GmbH, Vienna, Austria) at doses of 75.0–100.0 mg/kg (based on the therapeutic anticonvulsant dose) were used as reference drugs.
(§2) Data were presented as mean ± SD for different groups. Statistical analysis was performed using OriginPro 9.0 (MicroCal Software, Northampton, MA, USA), with p < 0.05 considered statistically significant.

[2] = system: strychnine-induced seizures; experiment: Strychnine-induced seizure model; assay type: in vivo, mice; details: for survival rate of strychnine-poisoned animals: dose not given; for increase of the survival rate of the animals: reference drugs, versus control (100% died)
Description: as §1, §2

[3] = set-up: method as in PMID 36677539; details: per os; cited from earlier work
[4] = Mus musculus, read-out: Survival Rate
[5] = oral dose 1.0 mg/kg 60 min before nicotine 10 mg/kg s.c., mean ± SD, N = 10
[6] = Mus musculus, oral dose 1.0 mg/kg 60 min before strychnine 1.5 mg/kg s.c., N = 10, read-out: Survival Rate
[7] = oral dose 1.0 mg/kg 60 min before strychnine 1.5 mg/kg s.c., mean ± SD, N = 10
[8] = Mus musculus, sc, read-out: Survival Rate
[9] = dose 5.0 mg/kg, nicotine 10 mg/kg s.c.
[10] = dose 10.0 mg/kg, nicotine 10 mg/kg s.c.
[11] = dose 5.0 mg/kg, strychnine 1.5 mg/kg s.c.
[12] = dose 10.0 mg/kg, strychnine 1.5 mg/kg s.c.
[13] = doses of 5–10 mg/kg, versus control
[14] = dose 75.0 mg/kg, nicotine 10 mg/kg s.c.
[15] = dose 100.0 mg/kg, nicotine 10 mg/kg s.c.
[16] = dose 75.0 mg/kg, strychnine 1.5 mg/kg s.c.
[17] = dose 100.0 mg/kg, strychnine 1.5 mg/kg s.c.
[18] = doses of 75–100 mg/kg, versus control

COc1cc2c(cc1OC)C(c1ccc(OC)c(O)c1Br)NCC2 (stereo not drawn) [Compound 27, 1-(2′-Bromo-3′-hydroxy-4′-methoxyphenyl)-6,7-dimethoxy-1,2,3,4-tetrahydroisoquinoline]
responders at 1 mg/kg [1, 4]: 90%
survival rate of the animals increased to [1]: 90–100%
activity against tremorogenic and convulsive actions of nicotine versus reference drugs (in words) [1]: comparable activity to the reference drugs
survival of poisoned animals compared to carbamazepine and valproate (in words) ([1]; mouse, in vivo): did not improve the survival
Duration of Seizures [1, 5]: 9.7 ± 0.9 min
Latency to Seizure Onset [1, 5]: 2.2 ± 0.02 min
responders at 1 mg/kg [2, 6]: 40%
Duration of Tremor and Seizures [2, 7]: 0.53 ± 0.3 min
Latency to Tremor and Seizure Onset [2, 7]: 10.5 ± 1.5 min
LD50 [3]: 4700 mg/kg and 4937 mg/kg and 4937.4 (4827.7 ± 5084.9) mg/kg

COc1cc2c(cc1OC)C(c1cccc(Cl)c1)NCC2 (stereo not drawn) [Compound 11, 1-(3′-Chlorophenyl)-6,7-dimethoxy-1,2,3,4-tetrahydroisoquinoline]
responders at 1 mg/kg [1, 4]: 70%
Duration of Seizures [1, 5]: 8.3 ± 0.3 min
Latency to Seizure Onset [1, 5]: 2.2 ± 0.07 min
responders at 1 mg/kg [2, 6]: 70%
Duration of Tremor and Seizures [2, 7]: 0.46 ± 0.5 min
Latency to Tremor and Seizure Onset [2, 7]: 15.5 ± 1.2 min
LD50 [3]: 232.4 (211.8 ± 251.1) mg/kg

COc1cc2c(cc1OC)C(c1ccc(Cl)cc1)NCC2 (stereo not drawn) [Compound 12, 1-(4′-Chlorophenyl)-6,7-dimethoxy-1,2,3,4-tetrahydroisoquinoline]
responders at 1 mg/kg [1, 4]: 70%
Duration of Seizures [1, 5]: 7.0 ± 0.4 min
Latency to Seizure Onset [1, 5]: 2.1 ± 0.09 min
responders at 1 mg/kg [2, 6]: 20%
Duration of Tremor and Seizures [2, 7]: 0.23 ± 0.6 min
Latency to Tremor and Seizure Onset [2, 7]: 18.5 ± 1.8 min
LD50 [3]: 730.4 (598.2 ± 883.7) mg/kg

COc1cc2c(cc1OC)C(c1ccc(O)cc1)NCC2 (stereo not drawn) [Compound 4, 1-(4′-Hydroxyphenyl)-6,7-dimethoxy-1,2,3,4-tetrahydroisoquinoline]
responders at 1 mg/kg [1, 4]: 60%
Duration of Seizures [1, 5]: 10.5 ± 0.8 min
Latency to Seizure Onset [1, 5]: 1.8 ± 0.05 min
responders at 1 mg/kg [2, 6]: 70%
Duration of Tremor and Seizures [2, 7]: 0.57 ± 0.7 min
Latency to Tremor and Seizure Onset [2, 7]: 14.2 ± 1.8 min
LD50 [3]: 924.2 (893.9 ± 953.9) mg/kg

COc1ccc(C2NCCc3cc(OC)c(OC)cc32)cc1Br (stereo not drawn) [Compound 19, 1-(3′-Bromo-4′-methoxyphenyl)-6,7-dimethoxy-1,2,3,4-tetrahydroisoquinoline]
responders at 1 mg/kg [1, 4]: 80%
Duration of Seizures [1, 5]: 19.0 ± 0.8 min
Latency to Seizure Onset [1, 5]: 1.8 ± 0.07 min
responders at 1 mg/kg [2, 6]: 40%
Duration of Tremor and Seizures [2, 7]: 0.59 ± 0.9 min
Latency to Tremor and Seizure Onset [2, 7]: 16.0 ± 1.4 min
LD50 [3]: 327.9 (287.1 ± 363.8) mg/kg

COc1ccc(C2NCCc3cc(OC)c(OC)cc32)cc1 (stereo not drawn) [Compound 5, 1-(4′-Methoxyphenyl)-6,7-dimethoxy-1,2,3,4-tetrahydroisoquinoline]
responders at 1 mg/kg [1, 4]: 80%
Duration of Seizures [1, 5]: 10.3 ± 0.6 min
Latency to Seizure Onset [1, 5]: 2.1 ± 0.09 min
responders at 1 mg/kg [2, 6]: 60%
Duration of Tremor and Seizures [2, 7]: 0.54 ± 0.7 min
Latency to Tremor and Seizure Onset [2, 7]: 16.5 ± 1.8 min
LD50 [3]: 1040.3 (986.0 ± 1079.8) mg/kg

COc1ccc(C2NCCc3cc(OC)c(OC)cc32)cc1O (stereo not drawn) [Compound 20, 1-(3′-Hydroxy-4′-methoxyphenyl)-6,7-dimethoxy-1,2,3,4-tetrahydroisoquinoline]
responders at 1 mg/kg [1, 4]: 70%
Duration of Seizures [1, 5]: 11.0 ± 0.7 min
Latency to Seizure Onset [1, 5]: 2.8 ± 0.07 min
responders at 1 mg/kg [2, 6]: 90%
survival rate of strychnine-poisoned animals [2]: ~90%
effect on the duration of the seizures ([2]; doses of 1–10 mg/kg): minimal effect
increase of animal survival ([2]; doses of 1–10 mg/kg): 90%
extension of the latency period for seizures ([2]; doses of 1–10 mg/kg, versus control): 27–86%
Duration of Tremor and Seizures [2, 7]: 0.63 ± 0.7 min
Latency to Tremor and Seizure Onset [2, 7]: 18.2 ± 1.4 min
activity against strychnine-induced seizures (in words) ([2]; ranking within the series): most active; also recorded: highest activity
LD50 [3]: 964.8 (916.5 ± 998.2) mg/kg

COc1cc2c(cc1OC)C(c1cc3c(cc1Br)OCO3)NCC2 (stereo not drawn) [Compound 30, 1-(2′-Bromo-4′,5′-methylenedioxyphenyl)-6,7-dimethoxy-1,2,3,4-tetrahydroisoquinoline]
responders at 1 mg/kg [1, 4]: 90%
survival rate of the animals increased to [1]: 90–100%
activity against tremorogenic and convulsive actions of nicotine versus reference drugs (in words) [1]: comparable activity to the reference drugs
Duration of Seizures [1, 5]: 7.0 ± 0.2 min
Latency to Seizure Onset [1, 5]: 2.5 ± 0.09 min
responders at 1 mg/kg [2, 6]: 30%
Duration of Tremor and Seizures [2, 7]: 0.41 ± 0.4 min
Latency to Tremor and Seizure Onset [2, 7]: 11.2 ± 1.2 min
LD50 [3]: 711.7 (604.3 ± 792.9) mg/kg

COc1cc(C2NCCc3cc(OC)c(OC)cc32)ccc1O (stereo not drawn) [Compound 21, 1-(4′-Hydroxy-3′-methoxyphenyl)-6,7-dimethoxy-1,2,3,4-tetrahydroisoquinoline]
responders at 1 mg/kg [1, 4]: 60%
Duration of Seizures [1, 5]: 14.3 ± 0.6 min
Latency to Seizure Onset [1, 5]: 1.8 ± 0.04 min
responders at 1 mg/kg [2, 6]: 40%
Duration of Tremor and Seizures [2, 7]: 0.52 ± 0.4 min
Latency to Tremor and Seizure Onset [2, 7]: 15.4 ± 1.5 min
LD50 [3]: 1663.6 (1623.1 ± 1629.1) mg/kg

COc1cc2c(cc1OC)C(c1ccccc1O)NCC2 (stereo not drawn) [Compound 3, 1-(2′-Hydroxyphenyl)-6,7-dimethoxy-1,2,3,4-tetrahydroisoquinoline]
responders at 1 mg/kg [1, 4]: 90%
survival rate of the animals increased to [1]: 90–100%
activity against tremorogenic and convulsive actions of nicotine versus reference drugs (in words) [1]: comparable activity to the reference drugs
Duration of Seizures [1, 5]: 9.0 ± 0.4 min
Latency to Seizure Onset [1, 5]: 2.6 ± 0.08 min
responders at 1 mg/kg [2, 6]: 60%
Duration of Tremor and Seizures [2, 7]: 0.29 ± 0.6 min
Latency to Tremor and Seizure Onset [2, 7]: 14.5 ± 1.7 min
LD50 [3]: 365.3 (326.1 ± 394.5) mg/kg

COc1cc2c(cc1OC)C(c1ccccc1Br)NCC2 (stereo not drawn) [Compound 13, 1-(2′-Bromophenyl)-6,7-dimethoxy-1,2,3,4-tetrahydroisoquinoline]
responders at 1 mg/kg [1, 4]: 50%
Duration of Seizures [1, 5]: 5.0 ± 0.7 min
Latency to Seizure Onset [1, 5]: 2.2 ± 0.03 min
responders at 1 mg/kg [2, 6]: 40%
survival rate of strychnine-poisoned animals [2]: no more than 40%
Duration of Tremor and Seizures [2, 7]: 0.31 ± 0.7 min
Latency to Tremor and Seizure Onset [2, 7]: 10.5 ± 1.3 min
LD50 [3]: 315.8 (281.2 ± 345.2) mg/kg

COc1cc2c(cc1OC)C(c1ccccc1)NCC2 (stereo not drawn) [Compound 2, 1-Phenyl-6,7-dimethoxy-1,2,3,4-tetrahydroisoquinoline]
responders at 1 mg/kg [1, 4]: 70%
Duration of Seizures [1, 5]: 3.2 ± 0.6 min
Latency to Seizure Onset [1, 5]: 3.2 ± 0.07 min
responders at 1 mg/kg [2, 6]: 60%
Duration of Tremor and Seizures [2, 7]: 0.43 ± 0.9 min
Latency to Tremor and Seizure Onset [2, 7]: 14.1 ± 1.5 min
LD50 [3]: 273.2 (249.7 ± 296.7) mg/kg

NC(=O)N1c2ccccc2C=Cc2ccccc21 [Carbamazepine, reference compound]
responders at 5 mg/kg [1, 8]: 60%
responders at 10 mg/kg [1, 8]: 80%
Duration of Seizures [1, 9]: 15.2 ± 0.9 min
Latency to Seizure Onset [1, 9]: 1.57 ± 0.07 min
Duration of Seizures [1, 10]: 4.7 ± 0.6 min
Latency to Seizure Onset [1, 10]: 1.5 ± 0.02 min
survival rate [1]: 60–80%
responders at 5 mg/kg ([2]; Mus musculus, sc, dose 5.0 mg/kg, strychnine 1.5 mg/kg s.c., read-out: Survival Rate): 40%
responders at 10 mg/kg ([2]; Mus musculus, sc, dose 10.0 mg/kg, strychnine 1.5 mg/kg s.c., read-out: Survival Rate): 50%
Duration of Tremor and Seizures [2, 11]: 0.43 ± 0.5 min
Latency to Tremor and Seizure Onset [2, 11]: 14.6 ± 1.4 min
Duration of Tremor and Seizures [2, 12]: 0.38 ± 0.8 min
Latency to Tremor and Seizure Onset [2, 12]: 12.6 ± 1.7 min
increase of latency time for seizure onset [2, 13]: 29–49%
reduction of the duration of seizures [2, 13]: 21–37%
increase of the survival rate of the animals [2]: 40–50%

CCCC(CCC)C(=O)O [Valproate (Convulex), Valproate, reference compound]
responders at 75 mg/kg ([1]; Mus musculus, sc, dose 75.0 mg/kg, nicotine 10 mg/kg s.c., read-out: Survival Rate): 90%
responders at 100 mg/kg ([1]; Mus musculus, sc, dose 100.0 mg/kg, nicotine 10 mg/kg s.c., read-out: Survival Rate): 90%
Duration of Seizures [1, 14]: 6.2 ± 0.4 min
Latency to Seizure Onset [1, 14]: 1.2 ± 0.04 min
Duration of Seizures [1, 15]: 10.8 ± 0.8 min
Latency to Seizure Onset [1, 15]: 1.5 ± 0.06 min
survival rate [1]: 90%
responders at 75 mg/kg [2, 8]: 40%
responders at 100 mg/kg [2, 8]: 20%
Duration of Tremor and Seizures [2, 16]: 0.34 ± 0.6 min
Latency to Tremor and Seizure Onset [2, 16]: 15.4 ± 1.5 min
Duration of Tremor and Seizures [2, 17]: 0.32 ± 0.4 min
Latency to Tremor and Seizure Onset [2, 17]: 14.3 ± 1.3 min
increase of latency time [2, 18]: 46–57%
reduction of the duration of seizures [2, 18]: 53%
increase of the survival rate of the animals [2]: 20–40%

— article PMC12472494, “Anticonvulsant Potential of 1-Aryl-6,7-dimethoxy-1,2,3,4-tetrahydroisoquinolines: Insights from Strychnine and Nicotine Models in In Vivo and In Silico Studies” (Pharmaceuticals, 2025)
